Square brackets hold non-standard residues; d marks the D form. Peptide text beside a SMILES is read from it. Gly(N-(CH2)6NH2) = NCCCCCCNCC(=O)O; Gly(N-2-aminoethyl) = NCCNCC(=O)O; Nspe = C[C@H](NCC(=O)O)c1ccccc1; Nphe = O=C(O)CNCc1ccccc1; Nlys = NCCCCNCC(=O)O
Legend:
[1] = test system: E. coli, P. aeruginosa, S. aureus and S. epidermidis; assay type: cell-based
In short: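 Peptoids (DMSO stock, diluted in Iso-sensitest broth) are serially halved to give 2–100 µM final in wells with equal volume of bacterial inoculum, standardised to 0.5 McFarland then diluted 10×. After 16 h at 37 °C with shaking, absorbance gives growth; triplicates.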

[2] = test system: NIH 3T3 murine fibroblasts; set-up: method as in PMID 26849681; conditions: in vitro mammalian assays; cited from earlier work
[3] = set-up: method as in PMID 18287037; conditions: cited from earlier work

Row | Structure (SMILES) | MICs against the bacteria tested [1] [µM] | observed toxicity against NIH 3T3 murine fibroblasts [2] [µM] | 50% haemolytic dose (HD50) [3] [µM]
1 | C[C@@H](c1ccccc1)N(CC(N)=O)C(=O)CN(C(=O)CN(CCN)C(=O)CN(C(=O)CN(C(=O)CNCCN)[C@@H](C)c1ccccc1)[C@@H](C)c1ccccc1)[C@@H](C)c1ccccc1 [Peptoid 18, (NaeNspeNspe)2] | 100 | – | –
2 | C[C@@H](c1ccccc1)N(CC(N)=O)C(=O)CN(C(=O)CN(CCCCN)C(=O)CN(C(=O)CN(C(=O)CNCCCCN)[C@@H](C)c1ccccc1)[C@@H](C)c1ccccc1)[C@@H](C)c1ccccc1 [Peptoid 15, (NLysNspeNspe)2] (H-[Nlys][Nspe][Nspe][Nlys][Nspe][Nspe]-NH2) | 100 | – | –
3 | NCCNCC(=O)N(CC(=O)N(CC(=O)N(CCN)CC(=O)N(CC(=O)N(CC(N)=O)Cc1ccccc1)Cc1ccccc1)Cc1ccccc1)Cc1ccccc1 [Peptoid 9, (NaeNpheNphe)2] (H-[Gly(N-2-aminoethyl)][Nphe][Nphe][Gly(N-2-aminoethyl)][Nphe][Nphe]-NH2) | 100 | – | –
4 | C[C@@H](c1ccccc1)N(CC(N)=O)C(=O)CN(C(=O)CN(CCCCCCN)C(=O)CN(C(=O)CN(C(=O)CNCCCCCCN)[C@@H](C)c1ccccc1)[C@@H](C)c1ccccc1)[C@@H](C)c1ccccc1 [Peptoid 12, (NahNspeNspe)2] | 100 | – | –
5 | NCCCCCCNCC(=O)N(CC(=O)N(CC(=O)N(CCCCCCN)CC(=O)N(CC(=O)N(CC(N)=O)Cc1ccccc1)Cc1ccccc1)Cc1ccccc1)Cc1ccccc1 [Peptoid 3, (NahNpheNphe)2] (H-[Gly(N-(CH2)6NH2)][Nphe][Nphe][Gly(N-(CH2)6NH2)][Nphe][Nphe]-NH2) | 100 | – | –
6 | NCCCCNCC(=O)N(CC(=O)N(CC(=O)N(CCCCN)CC(=O)N(CC(=O)N(CC(N)=O)Cc1ccccc1)Cc1ccccc1)Cc1ccccc1)Cc1ccccc1 [Peptoid 6, (NLysNpheNphe)2] (H-[Nlys][Nphe][Nphe][Nlys][Nphe][Nphe]-NH2) | 100 | – | –
7 | C[C@@H](c1ccccc1)N(CC(N)=O)C(=O)CN(C(=O)CN(CCCCN)C(=O)CN(C(=O)CN(C(=O)CN(CCCCN)C(=O)CN(C(=O)CN(C(=O)CN(CCCCN)C(=O)CN(C(=O)CN(C(=O)CNCCCCN)[C@@H](C)c1ccccc1)[C@@H](C)c1ccccc1)[C@@H](C)c1ccccc1)[C@@H](C)c1ccccc1)[C@@H](C)c1ccccc1)[C@@H](C)c1ccccc1)[C@@H](C)c1ccccc1 [Peptoid 13, (NLysNspeNspe)4] (H-[Nlys][Nspe][Nspe][Nlys][Nspe][Nspe][Nlys][Nspe][Nspe][Nlys][Nspe][Nspe]-NH2) | – | 5.1 | 100
